Patent US5612319A, “Postexposure prevention of HIV infection or seroconversion” (Medivir AB, priority 1994, dated 1997)
≈ marks a conversion by molar mass, not a printed value.

Legend:
[1] = system: lentivirus infections with HIV or SIV; conditions: administered prophylactically, prior to exposure to HIV or SIV; cited from earlier work
HIV [2] = conditions: rapid and sustained postexposure administration of large doses; cited from earlier work
SIV [3] = conditions: prophylactically, i.e. pre-exposure administered; cited from earlier work
HIV [4] = conditions: HIV-infected individuals; cited from earlier work
HIV-1, HIV-2 or SIV = conditions: until shortly after "treatment" is concluded; cited from earlier work
SIV [5] = test: Postexposure prevention of SIV infection in macaque monkeys (Example 2, Table 1); type: in vivo; conditions: for Detected during 30 days post virus inoculation: SIV Ag / Detected during 30 days post virus inoculation: SIV-2 / SIV antibody detected during 30 days post inoculation: 10 mg/kg s.c. three times per day
Protocol: Inoculation: The control and test animals, 2 year old macaque monkeys were inoculated […] with either a moderate (10 monkey infectious doses MID50, as determined by Bottiger et al Antiviral Chemistry and Chemotherapy 1992;3:269-271) or a high (100 MID50) dose preparation of SIV in phosphate buffer, as listed in Table 1 below.
One or three hours after i.v. inoculation with SIV, paired test animals were injected subcutaneously with 10 mg/kg of the preparation of Example 1, repeated three times per day for 1 day or 3 days as listed in table 1. Blood samples were extracted from the test and control animals on days 0, 17, 23 and 30 for determination of SIV antibody, SIV p26 antigen and presence of infective virus. The methods have been described by Bottiger et al, AIDS Res Hum Retroviruses 1992;7:1235-1238.

[6] = In vivo simian experiments, short term toxicity; conditions: 30 mg/kg/day
[7] = Cell culture tolerance in MT4 cells; type: cell-based, human; conditions: human; cell culture, MT4 cells; read-out: ID50 in MT4 cells
MT4 cells = test: Cell culture tolerance in MT4 cells; type: cell-based, human; conditions: cell culture results
SIV [8] = conditions: administered from 8 hours prior to virus inoculation; cited from earlier work
[9] = 10 MID50, treatment start 1 hour post inoculation, duration 1 day, monkeys 45, 46
[10] = 10 MID50, treatment start 1 hour post inoculation, duration 3 days, monkeys 48, 49
[11] = 10 MID50, treatment start 3 hours post inoculation, duration 3 days, monkeys 54, 57
[12] = 100 MID50, treatment start 1 hour post inoculation, duration 3 days, monkeys 53, 58

In the case of Cc1cn([C@H]2C[C@H](N=[N+]=[N-])[C@@H](CO)O2)c(=O)[nH]c1=O [AZT, zidovudine], the “effect on pattern of lentivirus infections” value [1] is given as “may alter the pattern of lentivirus infections”, the “published accounts of seroconversion after accidental exposure to HIV” value (HIV [2]) is given as 13 published accounts and the “prevention of infection with SIV” value (SIV [3]) is given as “inability to prevent infection with SIV”. The “suppression of AIDS development or reducing viral loads” value (HIV [4]) was “clinically significant action” and the delay of seroconversion (HIV-1, HIV-2 or SIV) was “at most appear to delay seroconversion”.
For Nc1ccn([C@H]2C[C@H](CO)[C@@H](CO)O2)c(=O)n1 [Example 1, 1-[2',3'-dideoxy-3'-C-(hydroxymethyl)-β-D-erythro-pentofuranosyl]-cytosine], the “Detected during 30 days post virus inoculation: SIV Ag” value (SIV [5]; [9]) was “-”, the “Detected during 30 days post virus inoculation: SIV-2” value (SIV [5]; [9]) was “-” and the “SIV antibody detected during 30 days post inoculation” value (SIV [5]; [9]) was “-”. The “Detected during 30 days post virus inoculation: SIV Ag” value (SIV [5]; [10]) was “-”, the “Detected during 30 days post virus inoculation: SIV-2” value (SIV [5]; [10]) was “-” and the “SIV antibody detected during 30 days post inoculation” value (SIV [5]; [10]) was “-”. For the same compound, the “Detected during 30 days post virus inoculation: SIV Ag” value (SIV [5]; [11]) was “-”, the “Detected during 30 days post virus inoculation: SIV-2” value (SIV [5]; [11]) was “-” and the “SIV antibody detected during 30 days post inoculation” value (SIV [5]; [11]) was “-”. For the same compound, the “Detected during 30 days post virus inoculation: SIV Ag” value (SIV [5]; [12]) was “-”, the “Detected during 30 days post virus inoculation: SIV-2” value (SIV [5]; [12]) was “-” and the “SIV antibody detected during 30 days post inoculation” value (SIV [5]; [12]) was “-”. The “protection from 100 infectious doses of SIV” value (SIV [5]; 3 days treatment, 100 infectious doses, animals 53 and 58) was “protected the test animals from the very high dose of 100 infectious doses of SIV”, the “prevention of infection establishing itself in the test animals” value (SIV [5]; all test animals, viral antigen, antibody or virus culture in blood) was “prevented the infection establishing itself in the test animals” and the “SIV antibody or SIV antigen in test animals” value (SIV [5]; each test animal, 30 day period monitored) was “free from detectable SIV antibody or SIV antigen”. The “infectious virus cultivated from blood samples” value (SIV [5]; each test animal, day 30) was “infectious virus could not be cultivated”, the “protection from 10 infectious doses of SIV” value (SIV [5]; single day of treatment, 10 infectious doses) was “protected the test animals from 10 infectious doses of SIV” and the “toxicity short term in simian experiments” value [6] was “no detectable toxicity”. The CC50 [7] was ~45 µg/mL (≈ 187 µM) and the “tolerance by human cells” value (MT4 cells) was “generally well tolerated”.
In the case of Cc1cn([C@H]2C[C@H](F)[C@@H](CO)O2)c(=O)[nH]c1=O [FLT, 3'-fluorothymidine], the “protection against SIV” value (SIV [8]) is listed as “may provide some protection against SIV”.
For O=C(O)P(=O)(O)O [PFA], the “prevention of infection with SIV” value (SIV [3]) is given as “inability to prevent infection with SIV”.
In the case of Cc1cn([C@H]2C=C[C@@H](CO)O2)c(=O)[nH]c1=O [d4T], the “prevention of infection with SIV” value (SIV [3]) is given as “inability to prevent infection with SIV”.
In the case of Nc1ccn([C@H]2CC[C@@H](CO)O2)c(=O)n1 [ddC], the “prevention of infection with SIV” value (SIV [3]) is listed as “inability to prevent infection with SIV”.
